Read-outs that look alike come from different tables or passages of the source.
What was measured:
[1] = tested on: A172 (human brain glioblastoma); experiment: MTT antiproliferative assay, A172; assay type: cell-based; details: for IC50: MTT, 72 h, A172 cells, read-out: IC50 ± SD A172; for SI HUVEC/A172: selectivity index = IC50 normal cell line / IC50 cancer cell line
Method: (§1) All cell lines were obtained from ATCC, and all chemicals were purchased from Sigma-Aldrich, St. Louis, MO, USA. […] All media were supplemented with antibiotic and antimycotic solutions, according to the manufacturers’ instructions. MTT cytotoxicity assessments were performed as described previously. […] The cells counted using an automated cell counter (Countess® II FL, Invitrogen by Thermo Fisher Scientific Inc., Waltham, MA, USA) were plated in 96-well plates (Nunc Edge 2F, Thermo Fisher Scientific Inc.) at a density of 0.1 × 10^4 per well. After an additional 72 h, cells underwent an MTT cytotoxicity assay (see below). The IC50 values were calculated using ED50plus v 1.0 freeware software (Instituto Nacional de Enfermedades Respiratorias, Mexico City, Mexico). Each cell line was tested in three independent replicates.
(§2) After the incubation time was complete, the medium was removed and crystals of formazan were solubilized in pure isopropanol. The absorbance readout was conducted immediately using a plate reader, Multiskan Spectrum, at 570 nm (Thermo Fisher Scientific Inc., Waltham, MA, USA). The background optical density was measured in the wells filled with the culture medium, without any cells.

B16F10 (murine melanoma) = experiment: MTT antiproliferative assay, B16F10; assay type: cell-based; details: for IC50: MTT, 72 h, B16F10 cells, read-out: IC50 ± SD B16F10; for SI HUVEC/ B16F10: selectivity index = IC50 normal cell line / IC50 cancer cell line
Method: as §1, §2

[2] = tested on: MDA-MB-231 (human breast adenocarcinoma); experiment: MTT antiproliferative assay, MDA-MB-231; assay type: cell-based; details: for IC50: MTT, 72 h, MDA-MB-231 cells, read-out: IC50 ± SD MDA-MB-231; for SI HUVEC/ MDA-MB-231: selectivity index = IC50 normal cell line / IC50 cancer cell line
Method: as §1, §2

[3] = tested on: HUVEC (human umbilical vein endothelial cells); experiment: MTT antiproliferative assay, HUVEC healthy control; assay type: cell-based; details: 72 h, HUVEC normal cells, read-out: IC50 ± SD HUVEC
Method: All cell lines were obtained from ATCC, and all chemicals were purchased from Sigma-Aldrich, St. Louis, MO, USA. Briefly, cells were cultivated in a controlled atmosphere using DMEM medium with fetal bovine serum (FBS) at a final concentration of 10% (A-172), an L15 medium with 15% FBS, cultivated without CO2 (MDA-MB-231), F12K with a heparin final concentration of 0.1 mg/mL, endothelial cell growth supplement with a final concentration of 0.03 mg/mL (HUVEC), and RPMI with 5% FBS. All media were supplemented with antibiotic and antimycotic solutions, according to the manufacturers’ instructions. MTT cytotoxicity assessments were performed as described previously. Briefly, cell lines A172, B16F10, MDA-MB-231, and HUVEC were seeded 24 h prior to the addition of the tested compounds. The cells counted using an automated cell counter (Countess® II FL, Invitrogen by Thermo Fisher Scientific Inc., Waltham, MA, USA) were plated in 96-well plates (Nunc Edge 2F, Thermo Fisher Scientific Inc.) at a density of 0.1 × 10^4 per well. After an additional 72 h, cells underwent an MTT cytotoxicity assay (see below). The IC50 values were calculated using ED50plus v 1.0 freeware software (Instituto Nacional de Enfermedades Respiratorias, Mexico City, Mexico). Each cell line was tested in three independent replicates.
as §2, with “Twenty microliters of an MTT solution (MTT: 3-(4,5-dimethylthiazol-2-yl)-2,5-diphenyl tetrazolium bromide, stock solution: 5 mg/mL) was added to each cell line for 2 h (A172, B16F10, MDA-MB-231, and HUVEC). After” for “After”

mushroom tyrosinase [4] = target: T1, mushroom tyrosinase (Agaricus bisporus, UniProt C7FF04); experiment: Mushroom tyrosinase inhibition assay (L-DOPA, dopachrome 475 nm); assay type: biochemical
T1 construct: purchased Sigma-Aldrich
Method: The mushroom tyrosinase (Sigma-Aldrich) inhibition was performed following previously reported methods. […] The inhibitor solutions were prepared in DMSO with an initial concentration of 1 mM. Different aliquots were added to the solution containing the buffer, L-DOPA, and EDTA, with the enzyme being added last. […] Ascorbic acid was used as a reference inhibitor with an initial concentration of 1 mM. The IC50 values were calculated from the equation generated via exponential fit of the experimental data.

mushroom tyrosinase [5] = target: T1, mushroom tyrosinase; experiment: Kinetic analysis of the inhibition of tyrosinase (Lineweaver-Burk); assay type: biochemical; details: compound at 0.05 mM; for Mechanism of Inhibition: Lineweaver-Burk plots; for Vmax: L-DOPA 100-250 µM
Method: A series of experiments were performed to determine the inhibition kinetics of compounds by following the already reported method. The inhibitor concentrations for compounds were 50 and 100 µM. The substrate L-DOPA concentration was between 100 and 250 µM in all kinetic studies. Maximal initial velocity was determined from the initial linear portion of absorbance up to ten minutes after the addition of the enzyme. The inhibition type of the enzyme, Michaelis constant (KM), and maximal velocity (Vmax) were determined by Lineweaver–Burk plots of the inverse of velocities (1/V) versus the inverse of substrate concentration 1/[L-DOPA] mM^−1.

11β-HSD1 = target: T2, 11β-HSD1 (Homo sapiens, UniProt P28845); experiment: Inhibition of 11β-HSD1 assay (cortisone to cortisol, microsomes, cortisol ELISA); assay type: biochemical; details: for % of 11β-HSD1 Inhibition 10 μM: inhibitor 10 µM, 150 min, 37 °C
T2 construct: tissue XenoTech Lot No. 1410013; host or cells: pooled human liver microsomes
Method: L160706125, was obtained from Cloud-Clone Corp. PBS, Lot No. H161008, was obtained from Pan Biotech. […] L191113457, was obtained from Cloud-Clone Corp. […] The microplates were incubated on an orbital shaker for 150 min at 37 °C. […] The quantity of cortisol formed from cortisone was determined using a cortisol ELISA kit, […].

11β-HSD2 = target: T3, 11β-HSD2 (Homo sapiens, UniProt P80365); experiment: Inhibition of 11β-HSD2 assay (cortisol to cortisone, microsomes, cortisol ELISA); assay type: biochemical; details: inhibitor 10 µM, 150 min, 37 °C
T3 construct: Human kidney microsomes, mixed gender, 0.5 mL, 10 mg/mL, Lot No. 1710160, were obtained from XenoTech; tissue XenoTech Lot No. 1710160; host or cells: human kidney microsomes
T3 sequence (P80365 1-405): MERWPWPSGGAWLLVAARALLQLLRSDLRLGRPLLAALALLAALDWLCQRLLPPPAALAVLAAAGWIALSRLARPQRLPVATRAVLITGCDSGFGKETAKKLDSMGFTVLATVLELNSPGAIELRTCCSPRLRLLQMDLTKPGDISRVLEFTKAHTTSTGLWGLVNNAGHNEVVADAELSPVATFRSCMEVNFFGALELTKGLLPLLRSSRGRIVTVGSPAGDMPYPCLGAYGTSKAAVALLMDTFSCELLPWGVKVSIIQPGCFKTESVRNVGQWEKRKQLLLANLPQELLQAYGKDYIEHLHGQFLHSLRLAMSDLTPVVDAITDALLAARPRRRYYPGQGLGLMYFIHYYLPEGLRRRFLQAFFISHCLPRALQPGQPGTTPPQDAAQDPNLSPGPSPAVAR
Method: The Enzyme-Linked Immunosorbent Assay (ELISA) Kit for 11-Beta-Hydroxysteroid Dehydrogenase Type 1, Lot No. L160706125, was obtained from Cloud-Clone Corp. PBS, Lot No. H161008, was obtained from Pan Biotech. […] The Enzyme-Linked Immunosorbent Assay (ELISA) Kit for 11-Beta-Hydroxysteroid Dehydrogenase Type 2, Lot No. L191113457, was obtained from Cloud-Clone Corp.
The oxidation reaction of cortisol to cortisone was carried out on 96-well microtiter plates in the presence of the enzyme 11β-HSD2 in a total volume of 100 µL. To this end, 60 µL of phosphate buffer (pH 7.4), 10 µL of a microsomes(0.12 µg/mL […]) solution in PBS (final quantity 2.5 µg), 20 µL of substrate mixture cortisol/NAD (final concentration 200 nM/2 mM), and 10 µL of the appropriate inhibitor solution (solvent DMSO/water 1/99, final concentration 10 µM) were placed in each well. The microplates were incubated on an orbital shaker for 150 min at 37 °C. […] The quantity of unreacted cortisol was determined using a cortisol ELISA kit DiaMetra.

[6] = L-DOPA 0.17 mM, pH 6.8, room temperature, read-out: IC50 ± SD mushroom tyrosinase
[7] = 5 inhibitor concentrations, three independent determinations, read-out: IC50 ± SD 11β-HSD1

T1 sequence (C7FF04 1-392 limits assumed): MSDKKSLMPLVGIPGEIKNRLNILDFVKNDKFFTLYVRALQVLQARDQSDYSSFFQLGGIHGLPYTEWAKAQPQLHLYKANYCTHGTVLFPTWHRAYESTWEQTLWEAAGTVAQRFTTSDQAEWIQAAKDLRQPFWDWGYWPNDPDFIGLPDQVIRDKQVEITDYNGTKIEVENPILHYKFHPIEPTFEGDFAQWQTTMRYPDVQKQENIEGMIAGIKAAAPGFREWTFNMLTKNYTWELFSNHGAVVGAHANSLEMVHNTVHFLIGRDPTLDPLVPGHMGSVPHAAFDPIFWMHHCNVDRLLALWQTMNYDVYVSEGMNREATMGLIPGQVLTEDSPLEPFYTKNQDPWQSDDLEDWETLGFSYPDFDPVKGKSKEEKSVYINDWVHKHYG
T2 sequence (P28845 whole entry): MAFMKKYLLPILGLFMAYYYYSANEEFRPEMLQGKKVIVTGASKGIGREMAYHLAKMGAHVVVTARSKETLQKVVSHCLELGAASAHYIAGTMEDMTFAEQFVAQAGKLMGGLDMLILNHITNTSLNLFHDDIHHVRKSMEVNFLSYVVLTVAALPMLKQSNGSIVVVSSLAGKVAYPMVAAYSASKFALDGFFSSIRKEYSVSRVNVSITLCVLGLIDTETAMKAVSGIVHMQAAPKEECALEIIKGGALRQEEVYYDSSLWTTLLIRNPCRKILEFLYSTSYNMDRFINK

| Substance | IC50 [1] [µM] | IC50 (B16F10 (murine melanoma)) [µM] | SI HUVEC/ B16F10 (B16F10 (murine melanoma)) | IC50 [2] [µM] | SI HUVEC/ MDA-MB-231 [2] | IC50 [3] [µM] | IC50 (mushroom tyrosinase [4]; [6]) [mM] | Mechanism of Inhibition (mushroom tyrosinase [5]) | Vmax (mushroom tyrosinase [5]) [mM/min] | IC50 (11β-HSD1; [7]) [µM] | % of 11β-HSD1 Inhibition 10 μM (11β-HSD1) [%] | % of 11β-HSD2 Inhibition 10 μM (11β-HSD2) [%] | SI HUVEC/A172 [1] | IC50 (mushroom tyrosinase [4]; rounded values in SAR summary, unit mM, read-out: IC50 tyrosinase inhibition) [mM] | IC50 (11β-HSD1; values in SAR summary, unit inferred, read-out: IC50 11β-HSD1 (unit inferred)) [µM] |
| --- | --- | --- | --- | --- | --- | --- | --- | --- | --- | --- | --- | --- | --- | --- | --- |
| 2-(2-(1,2-Dicarba-closo-Dodecaboranylmethylene)Hydrazinyl)-4-(4-Methoxyphenyl)Thiazole [4f] | > 10 | 5.81 ± 0.82 | >1.72 | 7.32 ± 1.26 | >1.37 | > 10 | 0.0494 ± 0.00801 | tyrosinase activator | 0.1472 | 9.35 ± 1.85 | 55.54 | 29.25 |  |  |  |
| 2-(2-(1,2-Dicarba-closo-Dodecaboranylmethylene)Hydrazinyl)-4-(3,4-Dichlorophenyl)Thiazole [4e] | 6.44 ± 0.6 | 5.58 ± 0.35 | 1.41 | 6.99 ± 2.27 | 1.12 | 7.86 ± 0.61 | 0.142 ± 0.013 | Activator | 0.1575 | 7.9 ± 1.4 | 62.17 | 19.34 | 1.22 | 0.142 | 7.9 to 8.1 |
| 4-(4-Chlorophenyl)-2-(2-(1,2-Dicarba-closo-Dodecaboranylmethylene)Hydrazinyl)Thiazole [4a] | 5.77 ± 0.96 | 5.03 ± 0.69 | 1.37 | 6.54 ± 0.52 | 1.05 | 6.87 ± 0.33 | 0.13 ± 0.0209 | Mixed | 0.1656 | 7.03 ± 0.53 | 60.07 | 25.47 | 1.19 |  |  |
| 2-(2-(1,2-Dicarba-closo-Dodecaboranylmethylene)Hydrazinyl)-4-(4-Nitrophenyl)Thiazole [4g] | 6.07 ± 1.06 | 5.11 | >1.96 | 6.96 ± 0.74 | >1.44 | > 10 | 0.105 ± 0.00908 | Uncompetitive | 0.0521 | 7.05 ± 0.25 | 73.51 | 32.55 | >1.65 |  |  |

Source: article PMC11477717, “Synthesis of Carborane–Thiazole Conjugates as Tyrosinase and 11β-Hydroxysteroid Dehydrogenase Inhibitors: Antiproliferative Activity and Molecular Docking Studies” (Molecules, 2024)
